Experiments:
[1] = molecular target: T1, CB1 receptor (Rattus norvegicus, UniProt P20272); assay: THC inhibition of AMPAR-mediated EPSC, patch clamp in nucleus accumbens slices; type: cell-based, rats; parameters: from tissue; host or cells: acute coronal brain slices, nucleus accumbens; details: control slices
[2] = molecular target: T1, CB1 receptor; assay: Pregnenolone concentrations in the brain after drugs of abuse and CB1 ligands (GC/MS); type: in vivo, Wistar rats; parameters: tissue Charles River Laboratories (France) (animals); host or cells: living Wistar rats, whole animal
Protocol: Plasma, brain and culture medium levels of pregnenolone (5-Pregnen-3β-ol-20-one), allopregnanolone (3α-hydroxy-5α-pregnan-20-one), epiallopregnanolone (3β-hydroxy-5α-pregnan-ol-20-one), testosterone, and 5α dihydrotestosterone were determined by GC/MS according to the of estraction, purification and quantification protocol described previously (George O, et al., Biol Psychiatry. 2010 68: 956-63, Vallee M, et al., Anal Biochem. 2000, 287:153-66).
In this example the inventors analyzed the effects of the injection of the principal drugs of abuse on the production of pregnenolone in male Wistar rats. […] For example, in the brain, starting from pregnenolone two parallel enzymatic cascades allow producing on one hand allopregnanolone and its stereoisomer epiallopregnanolone and on the other testosterone and its metabolite DHT. These brain steroids were quantified using GC-MS, the only technique able to differentiate their subtle structural differences. […] Concentrations of neurosteroids were analyzed 15, 30 and 120 min after the injection in several ascending brain structure, the ventral midbrain the hypothalamus, the striatal complex and the frontal cortex.
The example provides data obtained in the plasma and in several brain structures: frontal cortex (FCX); nucleus accumbens (ACC); striatum (STR); hypothalamus (HYP).
The effects of THC in the brain are mediated by a family of G-protein-coupled seven membrane receptors (GCPR) and principally by the CB1 and CB2 receptors.

[3] = molecular target: CB1 receptor (Mus musculus, UniProt P47746); assay: THC inhibition of fEPSP in nucleus accumbens slices; type: cell-based, mice; parameters: from tissue; host or cells: acute brain slices, nucleus accumbens; details: control slices
CB1 receptor (Mus musculus, UniProt P47746), sequence (P47746 whole entry, the tested form may be a part): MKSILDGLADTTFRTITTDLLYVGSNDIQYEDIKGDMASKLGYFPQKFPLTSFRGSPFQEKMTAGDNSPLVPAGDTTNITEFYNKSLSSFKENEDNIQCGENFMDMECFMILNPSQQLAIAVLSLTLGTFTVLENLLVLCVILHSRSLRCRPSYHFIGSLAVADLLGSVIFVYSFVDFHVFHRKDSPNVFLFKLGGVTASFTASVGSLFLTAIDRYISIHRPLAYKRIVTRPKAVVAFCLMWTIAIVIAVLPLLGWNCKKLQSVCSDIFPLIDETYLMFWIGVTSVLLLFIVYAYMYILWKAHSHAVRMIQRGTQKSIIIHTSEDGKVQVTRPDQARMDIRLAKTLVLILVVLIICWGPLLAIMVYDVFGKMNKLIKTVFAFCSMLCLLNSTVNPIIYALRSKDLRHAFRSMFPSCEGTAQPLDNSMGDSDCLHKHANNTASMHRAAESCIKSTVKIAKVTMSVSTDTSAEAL
Protocol: Animals were deeply anesthetized with Isoflourane and transcardially perfused with a sucrose-based physiological solution at 4° C. (in mM: 23 NaHCO3, 70 Choline Cl, 75 Sucrose, 25 Glucose, 2.5 KCl, 1.25 NaH2PO4, 7 MgCl2 and 0.5 CaCl2). The brain was removed and sliced (250-300 μm) in the coronal plane using a vibratome (Campden Instruments, Loughborough, UK). During the slicing process, the brain was maintained in the sucrose-based solution. Immediately after cutting, slices were stored at 32° C. for 40 minutes in a low-calcium artificial cerebrospinal fluid (low-Ca^2+ ACSF) that contained (in mM): 23 NaHCO3, 120 NaCl, 11 Glucose, 2.5 KCl, 1.2 NaH2PO4, 2.4 MgCl2, 1.2 CaCl2. Slices were then stored in low-Ca^2+ ACSF at room temperature until recording.
For fEPSPs, extracellular glass recording and stimulating electrodes were filled with ACSF. Synaptic potentials were evoked by means of two electric stimuli (0.1-0.25 mA, 200 μsec duration) delivered at 20 Hz every 10 seconds. Stimulating electrode was placed at a distance>150 μm in the dorsomedial direction from the recoding electrode.
In order to test the effect of pregnenolone on a wider range of THC concentrations, we recorded fEPSP in NAc slices. Due to the possibility to achieved stable fEPSP measurements for several hours, this technique is ideally suited to perform dose-response curves and has previously been used to address CB1 receptor function (Robbe et al., 2001; Mato et al., 2004). Thus, AMPAR-mediated evoked fEPSP were recorded by electrically stimulating local axons.

[4] = Elevated plus maze, anxiety-like behaviors; type: in vivo, mice; details: sc, 30 min before test; pregnenolone 1, 6, 10 mg/kg; rimonabant 10 mg/kg
Protocol: The elevated plus maze was made by a central platform (10×10 cm) from which departed 4 arms (45×10 cm) at a 90° angle from each other. Two opposite arms, named closed arms had peripheral wall 50 cm high. The two other arms, named open arms had no walls. The maze was suspended at 66 cm from the floor of the room and was brightly lighted (120 lux). The testing consisted in placing the animal in the central platform and the number of entry and the time spent in each compartment of the maze recorded for 5 min. The number of entry and time spent in the open arms are considered and index of anxiety-like behaviors, whilst the total number of entry are and index of locomotor activity.
One of the major side effects of orthosteric antagonists of the CB1 is the induction of behavioral side effect and in particular an axiodepressive state. […] This test has been chosen because an increase in anxiety was the principal undesirable side effect of this compound in humans.

T1 sequence (P20272 whole entry): as the sequence (P47746 whole entry, the tested form may be a part) above, with D95E counted along it

Compound	inhibition of EPSC amplitude by THC [1]	increase in brain concentrations of pregnenolone ([2]; nucleus accumbens, between 15 and 30 min after the injection, THC 3 mg/kg)	ED50 ([2]; rat, 30 min after the injection, THC 0.3-9 mg/kg, read-out: ED50 of the increase in pregnenolone in the brain) [mg/kg]	inhibition at 10 µM ([3]; THC 10 μM) [%]	inhibition at 20 µM ([3]; THC 20 μM) [%]	inhibition at 40 µM ([3]; THC 40 μM) [%]	anxiety-like behavior (entries and time spent in open arms) [4]
CCCCCc1cc(O)c2c(c1)OC(C)(C)[C@@H]1CCC(C)=C[C@@H]21 [THC, Δ9-tetrahydrocannbinol, reference compound]	34.3±3.7 % of inhibition	around 1500%	~3	23.9 ± 6	35.3 ± 4.7	48.6 ± 3.6	
Cc1c(C(=O)NN2CCCCC2)nn(-c2ccc(Cl)cc2Cl)c1-c1ccc(Cl)cc1 [rimonabant, reference compound]							anxiogenic effects

From patent US10150793B2, “Antagonists of CB1 receptor” (INSERM (Institut National de la Santé et de la Recherche …, priority 2011, dated 2018)
